Patent publication US11590129B2, “Combination therapy with an antitumor alkaloid” (PHARMA MAR, S.A., priority 2010, dated 2023)
Read-outs that look alike come from different tables or passages of the source.

Key:
[1] = system: A549 human lung carcinoma cell line; test: MTT cytotoxicity assay in A549 cells: IC50 of single agents and combinations with PM01183; format: cell-based; conditions: Homo sapiens
Description: (§1) Additional serial dilutions were prepared in serum-free culture medium to achieve a final 4× concentration. Aliquots of 50 μL of each diluted compound were added per well.
A549 was the human lung carcinoma cell line selected for this assay.
(§2) a. […] Briefly, cells were harvested and seeded in 96 well microtiter plates at a density of 5,000 cells in 150 μL of culture medium and incubated for 24 hours in drug-free medium before treatment with vehicle alone or test compounds for 72 h.
(§3) The cytotoxic effect was measured by the MTT reduction assay, in which 3-(4,5-Dimethylthiazol-2-yl)-2,5-diphenyltetrazolium bromide, a tetrazole, which is reduced to purple formazan in the mitochondria of living cells, was used. MTT (50 μL of 1 mg/mL stock solution) was added to the wells and incubated for 8 hours at 37° C. until formazan crystals were formed. After gently removing the culture medium, DMSO was added to dissolve the insoluble purple formazan product into a colored solution. […] Results were expressed as percentage of control cell growth.
(§4) b. In a second set of assays, A549 human tumor cells were incubated with PM01183 in combination with each of the agents mentioned above.
(§5) As a visual aid, response values were plotted on a scatter plot with dose ratios given on the x-axis and % response values on the y-axis. […] In cases where response values at the two endpoints were approximately equivalent, points lying above or below this predicted line of additivity could be interpreted as representing antagonistic or synergistic drug interaction, respectively.

[2] = system: MDA-MB-231 human breast adenocarcinoma cell line; test: cells; conditions: Homo sapiens, MDA-MB-231, 72 h
Description: as §2, §3, §4, §5, §1

[3] = system: IGROV-1 human ovarian adenocarcinoma cell line; test: cells; conditions: Homo sapiens, IGROV-1, 72 h
Description: as §2, §3, §4, §5, §1
IGROV-1 was the human ovarian adenocarcinoma cell line selected for this assay.

[4] = system: HT-29 human colon adenocarcinoma cell line; test: cells; conditions: Homo sapiens, HT-29, 72 h
Description: as §2, §3, §4, §5, §1
HT-29 was the human colon adenocarcinoma cell line selected for this assay.

[5] = system: PC-3 human prostate cancer cell line; test: cells; conditions: Homo sapiens, PC-3, 72 h
Description: as §2, §3, §4, §5, §1
PC-3 was the human prostate adenocarcinome cell line selected for this assay.

A2780 tumors = test: Human ovarian tumor xenografts (A2780) in athymic nude mice, tumor volume % T/C; format: in vivo
Description: Female athymic nude mice (Harlan Laboratories Models, S.L. (Barcelona, Spain) were utilized for all experiments. Animals were housed in individually ventilated cages, up to ten per cage in a 12-hour light-dark cycle at 21-23° C. and 40-60% humidity. The mice were allowed free access to irradiated standard rodent diet and sterilized water. Animals were acclimated for at least 5 days prior to tumor implantation with a tumor cell suspension.
The formula to calculate volume for a prolate ellipsoid was used to estimate tumor volume (mm^3) from 2-dimensional tumor measurements: Tumor volume (mm^3)=[L×W^2]÷2, where L is the length and it is the longest diameter in mm, and W is the width and it is the shortest diameter in mm of a tumor. Assuming unit density, volume was converted to weight (i.e., 1 mm^3=1 mg). Tumor volume and animal body weights were measured 2-3 times per week starting form the first day of treatment (Day 0).
PM01183 was provided in the form of vials of lyophilized PM01183 cake which was reconstituted with water for infusion to a concentration of 0.2 mg/mL. The PM01183 stock solution was further diluted in 5% glucose solution for injection to the dosing formulation concentrations. […] Vinorelbine was provided as a solution prepared by diluting the product with 0.9% saline solution.
Dose level groups were administered either as single agents or in combination.
Comparison of the median tumor volume in the treatment groups (T) to the median tumor volume in the control group (T/C×100%) was used for evaluation of the antitumor efficacy.
Day 9 for PM01183 and vinorelbine study) using the median-effect principle (Chou T. C. Pharmacol. Rev.

[6] = system: HepG2 human hepatocellular liver carcinoma cell line; test: MTT cytotoxicity assay in HepG2 cells: IC50 of single agents and combinations with PM01183; format: cell-based; conditions: Homo sapiens
Description: as §2, §3, §4, §5, §1
HepG2 was the human hepatocellular liver carcinoma cell line selected for this assay.

[7] = system: RXF-393 human kidney carcinoma cell line; test: cells; conditions: Homo sapiens, RXF 393, 72 h
Description: as §2, §3, §4, §5, §1

[8] = system: HGC-27 human gastric carcinoma cell line; test: cells; conditions: Homo sapiens, HGC-27, 72 h
Description: as §2, §3, §4, §5, §1
HGC-27 was the human gastric carcinoma cell line selected for this assay.

[9] = system: A673 human rhabdomyosarcoma cell line; test: cells; conditions: Homo sapiens, A673, 72 h
Description: as §2, §3, §4, §5, §1
A673 was the human rhabdomyosarcoma cell line selected for this assay.

[10] = vinorelbine 4.0 mg/kg iv days 0,7
[11] = vinorelbine 8.0 mg/kg iv days 0,7
[12] = paclitaxel 6.25 mg/kg iv days 0,7
[13] = paclitaxel 12.5 mg/kg iv days 0,7
[14] = paclitaxel 18.75 mg/kg iv days 0,7
[15] = paclitaxel 25 mg/kg iv days 0,7

O=NN(CCCl)C(=O)NCCCl [Carmustine, carmustine]
IC50 ([1]; A549, 72 hours drug exposure, MTT, read-out: IC50): 1000 µM
IC50 [2]: 900 µM
IC50 [3]: 712 µM

CCC1=C[C@@H]2CN(C1)Cc1c([nH]c3ccccc13)[C@@](C(=O)OC)(c1cc3c(cc1OC)N(C)[C@H]1[C@@](O)(C(=O)OC)[C@H](OC(C)=O)[C@]4(CC)C=CCN5CC[C@]31[C@@H]54)C2 [Vinorelbine, vinorelbine]
IC50 [4]: 0.03 µM
IC50 [5]: 10 µM
% T/C on day 0 (A2780 tumors; [10]): 97.2%
% T/C on day 2 (A2780 tumors; [10]): 88.6%
% T/C on day 5 (A2780 tumors; [10]): 69.3%
% T/C on day 7 (A2780 tumors; [10]): 81.7%
% T/C on day 9 (A2780 tumors; [10]): 77.3%
% T/C on day 0 (A2780 tumors; [11]): 97.6%
% T/C on day 2 (A2780 tumors; [11]): 79.5%
% T/C on day 5 (A2780 tumors; [11]): 45.0%
% T/C on day 7 (A2780 tumors; [11]): 54.2%
% T/C on day 9 (A2780 tumors; [11]): 47.9%
IC50 ([6]; HepG2, 72 hours drug exposure, MTT, read-out: IC50): 1.02 µM
IC50 [2]: 12 µM
IC50 [7]: 8.5 µM
IC50 [8]: 0.065 µM
IC50 [9]: 0.05 µM
IC50 [3]: 1.39 µM

CC(=O)O[C@H]1C(=O)[C@@]2(C)[C@H]([C@H](OC(=O)c3ccccc3)[C@]3(O)C[C@H](OC(=O)[C@H](O)[C@@H](NC(=O)c4ccccc4)c4ccccc4)C(C)=C1C3(C)C)[C@]1(OC(C)=O)CO[C@@H]1C[C@@H]2O [Paclitaxel, paclitaxel]
IC50 ([1]; A549, 72 h): 0.04 µM
IC50 [5]: 0.09 µM
% T/C on day 0 (A2780 tumors; [12]): 94.3%
% T/C on day 3 (A2780 tumors; [12]): 60.2%
% T/C on day 5 (A2780 tumors; [12]): 79.7%
% T/C on day 7 (A2780 tumors; [12]): 81.3%
% T/C on day 10 (A2780 tumors; [12]): 59.2%
% T/C on day 0 (A2780 tumors; [13]): 96.2%
% T/C on day 3 (A2780 tumors; [13]): 62.5%
% T/C on day 5 (A2780 tumors; [13]): 73.9%
% T/C on day 7 (A2780 tumors; [13]): 62.5%
% T/C on day 10 (A2780 tumors; [13]): 50.8%
% T/C on day 0 (A2780 tumors; [14]): 95.0%
% T/C on day 3 (A2780 tumors; [14]): 60.4%
% T/C on day 7 (A2780 tumors; [14]): 41.5%
% T/C on day 10 (A2780 tumors; [14]): 31.1%
% T/C on day 0 (A2780 tumors; [15]): 95.3%
% T/C on day 3 (A2780 tumors; [15]): 49.3%
% T/C on day 7 (A2780 tumors; [15]): 34.0%
% T/C on day 10 (A2780 tumors; [15]): 19.8%
IC50 ([6]; HepG2, 72 h): 0.057 µM
IC50 [2]: 0.0085 µM
IC50 [8]: 0.005 µM
IC50 [3]: 0.095 µM

CC(C)C(=O)Nc1ccc([N+](=O)[O-])c(C(F)(F)F)c1 [Flutamide, flutamide]
IC50 [5]: 49 µM

O=C(CCCCCCC(=O)Nc1ccccc1)NO [Vorinostat, vorinostat]
IC50 [9]: 2.16 µM
IC50 [3]: 2.88 µM
